IC50 and melting point data for 32 compounds are collected here from patent publication US8357694B2, “Substituted 5,6-dihydro-6-phenylbenzo[F]isoquinolin-2-amine compounds” (ArQule, Inc., priority 2008, dated 2013).

SMILES strings stand for the structures. Where a name gives a salt, the structure may show the parent alone.

The subject of series [1] is SNU-16. Description: MTS assay, SNU-16. It is filed as cell-based. To be noted: Homo sapiens, SNU-16, SNU-16; read-out: MTS cell kill data (IC50-μM) SNU-16. On the technique in general: Formazan colour is commonly taken as a measure of viable cells.
Procedure: Cells were maintained at 37° C., 5% CO2 in DMEM media supplemented with 1% fetal bovine serum, penicillin/streptomycin and fungizone (Invitrogen). Cells were seeded into 96-well tissue culture plates at 3000 per well and cultured at 37° C. for 18 hours. Test compounds were dissolved and diluted to 300× in DMSO then diluted 1:40 in DMEM.

For orientation: IC50 means the concentration needed to halve the response being measured. In general, melting point refers to the temperature of the solid-liquid transition.

With `CN(C)CCc1ccc(Nc2ncc3c(n2)-c2ccccc2[C@H](c2ccc(F)c(F)c2)C3)cc1` [Example 87, (S)-6-(3,4-difluorophenyl)-N-(4-(2-(dimethylamino)ethyl)phenyl)-5,6-dihydrobenzo[h]quinazolin-2-amine hydrochloride], the IC50 in series [1] amounted to 7.78 µM.
As for `COCCN1CCN(CCc2ccc(Nc3ncc4c(n3)-c3ccccc3[C@H](c3ccc(Br)cc3)C4)cc2)CC1` [Example 97, (S)-6-(4-bromophenyl)-N-(4-(2-(4-(2-methoxyethyl)piperazin-1-yl)ethyl)phenyl)-5,6-dihydrobenzo[h]quinazolin-2-amine hydrochloride salt], the half-maximal inhibitory concentration (IC50) in series [1] worked out at 4.2 µM.
The compound `Brc1cccc(C2Cc3cnc(Nc4ccc(CCNCc5ccccc5)cc4)nc3-c3ccccc32)c1` (centres unmarked) [Example 46, N-(4-(2-(benzylamino)ethyl)phenyl)-6-(3-bromophenyl)-5,6-dihydrobenzo[h]quinazolin-2-amine] yielded a melting point of 98 to 100 °C.
Still for that read-out and setting: the value for `CN(CCc1ccc(Nc2ncc3c(n2)-c2ccccc2C(c2ccc(Cl)c(Cl)c2)C3)cc1)C1CCCCC1` (centres unmarked) [Example 30, N-(4-(2-(cyclohexyl(methyl)amino)ethyl)phenyl)-6-(3,4-dichlorophenyl)-5,6-dihydrobenzo[h]quinazolin-2-amine] was 130 to 131 °C; that for `CCCCN(C)CCc1ccc(Nc2ncc3c(n2)-c2ccccc2[C@H](c2ccc(Cl)c(Cl)c2)C3)cc1` (as salt: hydrochloride) [Example 105, (S)—N-(4-(2-(butyl(methyl)amino)ethyl)phenyl)-6-(3,4-dichlorophenyl)-5,6-dihydrobenzo[h]quinazolin-2-amine hydrochloride salt] was 135 to 145 °C; that for `Fc1ccc([C@H]2Cc3cnc(Nc4ccc(CCN5CCCCC5)cc4)nc3-c3ccccc32)cc1F` (as salt: hydrochloride) [Example 91, (R)-6-(3,4-difluorophenyl)-N-(4-(2-(piperidin-1-yl)ethyl)phenyl)-5,6-dihydrobenzo[h]quinazolin-2-amine hydrochloride] was 165 to 167 °C.
In turn, `CN1CCN(CCc2ccc(Nc3ncc4c(n3)-c3ccccc3C(c3ccc(Cl)c(Cl)c3)C4)cc2)CC1` (centres unmarked) [Example 52, 6-(3,4-dichlorophenyl)-N-(4-(2-(4-methylpiperazin-1-yl)ethyl)phenyl)-5,6-dihydrobenzo[h]quinazolin-2-amine] gave a melting point of 119 to 121 °C.
The compound `Nc1ncc2c(n1)-c1ccccc1[C@H](c1ccccc1F)C2` (as salt: hydrochloride) [Example 24, (R)-6-(2-fluorophenyl)-5,6-dihydrobenzo[h]quinazolin-2-amine] gave a melting point of 154 to 155 °C.
`Nc1ncc2c(n1)-c1ccccc1C(c1ccc(Cl)c(Cl)c1)C2` (centres unmarked): the melting point lay in the range of 159 to 160 °C.
Same read-out and setting: under `COCCNCc1cccc(Nc2ncc3c(n2)-c2ccccc2[C@H](c2ccccc2F)C3)c1` (as salt: HCl) [Example 158, (R)-6-(2-fluorophenyl)-N-(3-((2-methoxyethylamino)methyl)phenyl)-5,6-dihydrobenzo[h]quinazolin-2-amine] stands 139 to 147 °C; under `COCCN1CCN(CCc2cccc(Nc3ncc4c(n3)-c3ccccc3[C@H](c3ccc(Cl)c(Cl)c3)C4)c2)CC1` (as salt: hydrochloride), 220 to 225 °C.
The compound `Clc1ccc([C@@H]2Cc3cnc(Nc4cccc(CCN5CCCCC5)c4)nc3-c3ccccc32)cc1Cl` (as salt: hydrochloride) [Example 167, (S)-6-(3,4-dichlorophenyl)-N-(3-(2-(piperidin-1-yl)ethyl)phenyl)-5,6-dihydrobenzo[h]quinazolin-2-amine hydrochloride] gave a melting point of 165 to 169 °C.
Same read-out and setting: under `OCCc1ccc(Nc2ncc3c(n2)-c2ccccc2[C@@H](c2ccc(Cl)c(Cl)c2)C3)cc1` stands 113 to 115 °C; under `COCCN1CCN(CCc2ccc(Nc3ncc4c(n3)-c3ccccc3[C@@H](c3ccc(F)c(F)c3)C4)cc2)CC1` (as salt: hydrochloride) [Example 90, (R)-6-(3,4-difluorophenyl)-N-(4-(2-(4-(2-methoxyethyl)piperazin-1-yl)ethyl)phenyl)-5,6-dihydrobenzo[h]quinazolin-2-amine hydrochloride], 190 to 192 °C.
In turn, `COCCN1CCN(CCc2ccc(Nc3ncc4c(n3)-c3ccccc3[C@H](c3ccc(Br)cc3)C4)cc2)CC1` (as salt: hydrochloride) [Example 97, (S)-6-(4-bromophenyl)-N-(4-(2-(4-(2-methoxyethyl)piperazin-1-yl)ethyl)phenyl)-5,6-dihydrobenzo[h]quinazolin-2-amine hydrochloride salt] showed a melting point of 265 to 270 °C.
In turn, `COCCN1CCN(CCc2cc(Nc3ncc4c(n3)-c3ccccc3[C@H](c3ccccc3F)C4)ccc2F)CC1` (as salt: hydrochloride) [Example 175, (R)—N-(4-fluoro-3-(2-(4-(2-methoxyethyl)piperazin-1-yl)ethyl)phenyl)-6-(2-fluorophenyl)-5,6-dihydrobenzo[h]quinazolin-2-amine hydrochloride salt] displayed a melting point of 199 to 201 °C.
With `COCCN1CCN(CCc2ccc(Nc3ncc4c(n3)-c3ccccc3[C@H](c3ccc(F)c(F)c3)C4)cc2)CC1` (as salt: hydrochloride) [Example 83, N-(4-(2-(4-(2-(S)-6-(3,4-difluorophenyl)-N-(4-(2-(4-(2-methoxyethyl)piperazin-1-yl)ethyl)phenyl)-5,6-dihydrobenzo[h]quinazolin-2-amine hydrochloride], the melting point was in the range of 190 to 192 °C.
`OCCc1ccc(Nc2ncc3c(n2)-c2ccccc2C(c2ccc(Cl)cc2)C3)cc1` (centres unmarked) [Example 22, 2-(4-(6-(4-chlorophenyl)-5,6-dihydrobenzo[h]quinazolin-2-ylamino)phenyl)ethanol] came in with a melting point of 163 to 164 °C.
Consider `CC(C)(C)OC(=O)N1CCC[C@@H](Nc2ncc3c(n2)-c2ccccc2[C@H](c2ccc(Cl)c(Cl)c2)C3)C1`, for which the melting point lay in the range of 85 to 87 °C.
`CN(CCc1ccc(Nc2ncc3c(n2)-c2ccccc2[C@H](c2ccc(Cl)c(Cl)c2)C3)cc1)C1CCCCC1` (as salt: hydrochloride) [Example 106, (S)—N-(4-(2-(cyclohexyl(methyl)amino)ethyl)phenyl)-6-(3,4-dichlorophenyl)-5,6-dihydrobenzo[h]quinazolin-2-amine hydrochloride salt] yielded a melting point of 175 to 185 °C.
Compound `NCCc1ccc(Nc2ncc3c(n2)-c2ccccc2C(c2cccc(Br)c2)C3)cc1` (centres unmarked) [Example 34, N-(4-(2-aminoethyl)phenyl)-6-(3-bromophenyl)-5,6-dihydrobenzo[h]quinazolin-2-amine] gave a melting point of 115 to 117 °C.
Still for that read-out and setting: under `CCCCN(C)CCc1ccc(Nc2ncc3c(n2)-c2ccccc2[C@H](c2ccc(F)c(F)c2)C3)cc1` (as salt: hydrochloride) [Example 96, (S)—N-(4-(2-(butyl(methyl)amino)ethyl)phenyl)-6-(3,4-difluorophenyl)-5,6-dihydrobenzo[h]quinazolin-2-amine hydrochloride salt] stands 145 to 150 °C; under `CN1CCN(CCc2ccc(Nc3ncc4c(n3)-c3ccccc3[C@H](c3ccc(Cl)c(Cl)c3)C4)cc2)CC1` (as salt: hydrochloride) [Example 114, (S)-6-(3,4-dichlorophenyl)-N-(4-(2-(4-methylpiperazin-1-yl)ethyl)phenyl)-5,6-dihydrobenzo[h]quinazolin-2-amine hydrochloride], 236 to 238 °C; under `CN(CCc1ccccc1)CCc1cccc(Nc2ncc3c(n2)-c2ccccc2[C@H](c2ccc(Cl)c(Cl)c2)C3)c1` (as salt: hydrochloride), 154 to 157 °C.
`COCCN1CCN(CCc2ccc(Nc3ncc4c(n3)-c3ccccc3C(c3ccc(F)c(F)c3)C4)cc2)CC1` (centres unmarked) [Example 59, 6-(3,4-difluorophenyl)-N-(4-(2-(4-(2-methoxyethyl)piperazin-1-yl)ethyl)phenyl)-5,6-dihydrobenzo[h]quinazolin-2-amine] displayed a melting point of 267 to 270 °C.
As to `CCCCNCCc1cc(Nc2ncc3c(n2)-c2ccccc2[C@H](c2ccccc2F)C3)ccc1F` (as salt: hydrochloride) [Example 171, (R)—N-(3-(2-(butylamino)ethyl)-4-fluorophenyl)-6-(2-fluorophenyl)-5,6-dihydrobenzo[h]quinazolin-2-amine hydrochloride salt], the melting point fell in the range of 180 to 185 °C.
`OCCc1ccc(Nc2ncc3c(n2)-c2ccccc2C(c2cccc(Br)c2)C3)cc1` (centres unmarked) [Example 7, 2-(4-(6-(3-bromophenyl)-5,6-dihydrobenzo[h]quinazolin-2-ylamino)phenyl)ethanol] had a melting point of 88 to 90 °C.
On the same count and under the same terms, under `CCCCN(C)CCc1cccc(Nc2ncc3c(n2)-c2ccccc2[C@H](c2ccccc2F)C3)c1` (as salt: hydrochloride) stands 163 to 167 °C; under `CCCCN(C)CCc1cccc(Nc2ncc3c(n2)-c2ccccc2[C@H](c2ccc(Cl)c(Cl)c2)C3)c1` (as salt: hydrochloride) [Example 168, (S)—N-(3-(2-(butyl(methyl)amino)ethyl)phenyl)-6-(3,4-dichlorophenyl)-5,6-dihydrobenzo[h]quinazolin-2-amine hydrochloride], 162 to 166 °C.
Compound `Clc1ccc([C@@H]2Cc3cnc(Nc4ccccc4)nc3-c3ccccc32)cc1Cl` [Example 15, (S)-6-(3,4-dichlorophenyl)-N-phenyl-5,6-dihydrobenzo[h]quinazolin-2-amine] showed a melting point of 159 °C.
Compound `COCCN1CCN(CCc2ccc(Nc3ncc4c(n3)-c3ccccc3C(c3cccc(Br)c3)C4)cc2)CC1` (centres unmarked) [Example 32, 6-(3-bromophenyl)-N-(4-(2-(4-(2-methoxyethyl)piperazin-1-yl)ethyl)phenyl)-5,6-dihydrobenzo[h]quinazolin-2-amine] yielded a melting point of 105 to 107 °C.
`COCCNCCc1ccc(Nc2ncc3c(n2)-c2ccccc2[C@H](c2ccc(F)c(F)c2)C3)cc1` (as salt: HCl) [Example 82, (S)-6-(3,4-difluorophenyl)-N-(4-(2-(2-methoxyethylamino)ethyl)phenyl)-5,6-dihydrobenzo[h]quinazolin-2-amine]: the melting point is 221 to 225 °C.
